The record followed here is patent US20240383904A1, “HETEROCYCLIC COMPOUNDS” (Hoffmann-La Roche Inc., priority 2021, published 2024).

Some results are limits rather than exact numbers.

The experiment deals with T1, MAGL (Homo sapiens, UniProt Q99685).
T1 sequence (Q99685 1-303): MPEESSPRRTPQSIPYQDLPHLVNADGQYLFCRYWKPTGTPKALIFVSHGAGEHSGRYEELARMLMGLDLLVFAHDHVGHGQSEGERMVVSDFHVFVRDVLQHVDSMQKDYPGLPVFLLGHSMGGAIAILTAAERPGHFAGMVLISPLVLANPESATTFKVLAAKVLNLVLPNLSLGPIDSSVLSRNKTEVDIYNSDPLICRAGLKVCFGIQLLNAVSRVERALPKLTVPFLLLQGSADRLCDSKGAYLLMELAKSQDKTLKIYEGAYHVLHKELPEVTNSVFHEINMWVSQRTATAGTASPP
Kind of experiment: 2-AG assay: MAGL inhibitory activity by hydrolysis of 2-arachidonoylglycerol to arachidonic acid, followed by mass spectrometry. Format: biochemical. The text has this:
Compounds of formula (I) were profiled for MAGL inhibitory activity by determining the enzymatic activity by following the hydrolysis of the natural substrate 2-arachidonoylglycerol (2-AG) resulting in arachidonic acid, which can be followed by mass spectrometry. This assay is hereinafter abbreviated “2-AG assay”.
Compounds of formula (I) were profiled for MAGL inhibitory activity by determining the enzymatic activity by following the hydrolysis of the natural substrate 2-arachidonoylglycerol (2-AG) resulting in arachidonic acid, which can be followed by mass spectrometry. This assay is hereinafter abbreviated “2-AG assay”. The 2-AG assay was carried out in 384 well polypropylene assay plates. Compound dilutions were made in 100% DMSO in a polypropylene plate in 3-fold dilution steps to give a final concentration range in the assay from 12.5 μM to […]. Compound dilutions were added to MAGL protein in assay buffer (50 mM TRIS, 1 mM EDTA, 0.01% (v/v) Tween-20, 2.5% (v/v) DMSO). After shaking, the plate was incubated for 15 min at RT. To start the reaction, 2-arachidonoylglycerol in assay buffer was added. The final concentrations in the assay was […] for MAGL protein and 8 μM 2-arachidonoylglyerol. After shaking and 30 min incubation at RT, the reaction was quenched by the addition of two assay volumes of acetonitrile containing 4 μM of d8-arachidonic acid. The amount of arachidonic acid formed was traced by an online SPE system (Agilent Rapidfire) coupled to a triple quadrupole mass spectrometer. A C18 SPE cartridge (Agilent G9205A) was used in an acetonitrile/water liquid setup. The mass spectrometer was operated in negative electrospray mode following the mass transitions 303.1→259.1 for arachidonic acid and 311.1→267.0 for d8-arachidonic acid. The activity of the compounds was calculated based on the ratio of intensities [arachidonic acid/d 8-arachidonic acid].

The mark [1] stands for this setting: 15 min preincubation, 30 min reaction at RT, 8 μM 2-arachidonoylglycerol.

Consider “2-[6-[[6- (trifluoromethyl)pyrida- zin-3-y1]methyl]-2- azaspiro[3.3]heptane-2- carbonyl]-2,5- diazaspiro[3.4]octan-6- one [Example 12]”, for which, under setting [1], the IC50 – broadly, the concentration at which inhibition is half-maximal – turned out to be 36.4 nM.

`CS(=O)(=O)c1ccc(C[C@@H]2CCC3(C2)CN(C(=O)N2CC4(COCC(=O)N4)C2)C3)cc1` (single isomer, unassigned) [Example 73]: 80.2 nM corresponded to half-maximal inhibition under setting [1] (IC50). `CS(=O)(=O)c1ccc(C[C@H]2CCC3(C2)CN(C(=O)N2CC4(COCC(=O)N4)C2)C3)cc1` (single isomer, unassigned) [Example 74] yielded an IC50 under setting [1] of 77.7 nM. On to `O=C1NC2(CO1)CN(C(=O)N1CC3(CC[C@H](Oc4cnc(C(F)(F)F)cn4)C3)C1)C2` (single isomer, unassigned) [Example 100], for which, under setting [1], the IC50 worked out at 3.42 nM. This IC50 is about 23-fold lower than that of the molecule before.

Regarding `O=C1NC2(CO1)CN(C(=O)N1CC3(CCC(Oc4cnc(C(F)(F)F)cn4)C3)C1)C2` (single isomer, unassigned) [Example 104], inhibition under setting [1] was half-maximal at 2.85 nM (IC50). For the molecule `N=[S@@](=O)(c1ccc(CC2CC3(C2)CN(C(=O)N2CC4(CCCC(=O)N4)C2)C3)cc1)C(F)(F)F` (single isomer, unassigned) [Example 284, 2-[6-[[4-(trifluoromethylsulfoni-midoyl)phenyl]methyl]-2-azaspiro[3.3]heptane-2-carbonyl]-2,5-diazaspiro[3.5]nonan-6-one], under setting [1], the IC50 was 120 nM. The molecule `N=[S@@](=O)(c1ccc(CC2CC3(C2)CN(C(=O)N2CC4(CCCC(=O)N4)C2)C3)cc1)C(F)(F)F` (single isomer, unassigned) [Example 287, 2-[6-[[4-(trifluoromethylsulfoni-midoyl)phenyl]methyl]-2-azaspiro[3.3]heptane-2-carbonyl]-2,5-diazaspiro[3.5]nonan-6-one] had an IC50 under setting [1] of 437 nM. Turning to `N=S(=O)(c1cccc(CC2CC3(C2)CN(C(=O)N2CC4(CCC(=O)N4)C2)C3)c1)C(F)(F)F` (centres unmarked) [Example 1], the half-maximal inhibitory concentration (IC50) under setting [1] stood at 0.91 nM. Against the preceding molecule, the IC50 is about 480-fold lower. `N=S(=O)(c1ccc(CC2CC3(C2)CN(C(=O)N2CC4(CCC(=O)N4)C2)C3)cc1)C(F)(F)F` (centres unmarked) [Example 2, 2-[6-[4-(trifluoromethylsulfoni-midoyl)benzyl]-2-azaspiro[3.3]heptane-2-carbonyl]-2,5-diazaspiro[3.4]octan-6-one] displayed an IC50 under setting [1] of 2.15 nM. Regarding `O=C1CCC2(CN(C(=O)N3CC4(CC(Cc5ccc(C(F)(F)F)nc5)C4)C3)C2)N1` [Example 3, 2-[6-[[6-(trifluoromethyl)-3-pyridyl]methyl]-2-azaspiro[3.3]heptane-2-carbonyl]-2,5-diazaspiro[3.4]octan-6-one], under setting [1], the IC50 was found to be 2.85 nM. `O=C1CCC2(CN(C(=O)N3CC4(CC(Cc5cnc(C(F)(F)F)cn5)C4)C3)C2)N1` [Example 4, 2-[6-[[5-(trifluoromethyl)pyrazin-2-yl]methyl]-2-azaspiro[3.3]heptane-2-carbonyl]-2,5-diazaspiro[3.4]octan-6-one] gave an IC50 under setting [1] of 11.2 nM. `O=C1NC2(CO1)CN(C(=O)N1CC3(CC(Cc4cnc(C(F)(F)F)cn4)C3)C1)C2` [Example 5, 2-[6-[[5-(trifluoromethyl)pyrazin-2-y1]methyl]-2-azaspiro[3.3]heptane-2-carbonyl]-7-oxa-2,5-diazaspiro[3.4]octan-6-one] gave a concentration for half-maximal inhibition (IC50) under setting [1] of 1.15 nM. Under setting [1], `O=C1CCC2(CN(C(=O)N3CC4(CC(Cc5ccc(OC(F)(F)F)cn5)C4)C3)C2)N1` [Example 6, 2-[6-[[5-(trifluoromethoxy)-2-pyridyl]methyl]-2-azaspiro[3.3]heptane-2-carbonyl]-2,5-diazaspiro[3.4]octan-6-one] came in with an IC50 of 0.47 nM. The molecule `O=C1CCC2(CN(C(=O)N3CC4(CC(Cc5ncc(C(F)(F)F)cc5F)C4)C3)C2)N1` [Example 7, 2-[6-[[3-fluoro-5-(trifluoromethyl)-2-pyridyl]methyl]-2-azaspiro[3.3]heptane-2-carbonyl]-2,5-diazaspiro[3.4]octan-6-one] displayed an IC50 under setting [1] of 0.35 nM.

The molecule `CS(=O)(=O)c1ccc(CC2CC3(C2)CN(C(=O)N2CC4(CCC(=O)N4)C2)C3)cc1` [Example 8, 2-[6-(4-mesylbenzyl)-2-azaspiro[3.3]heptane-2-carbonyl]-2,5-diazaspiro[3.4]octan-6-one] registered an IC50 under setting [1] of 15.1 nM. Take `CS(=O)(=O)c1cccc(CC2CC3(C2)CN(C(=O)N2CC4(CCC(=O)N4)C2)C3)c1` [Example 9, 2-[6-(3-mesylbenzyl)-2-azaspiro[3.3]heptane-2-carbonyl]-2,5-diazaspiro[3.4]octan-6-one]: half-maximal inhibition under setting [1] (IC50) was put at 20.5 nM. The IC50 values of the last two molecules are within 1.5-fold of each other. On the same count and under the same terms, under `CS(=O)(=O)c1cc(F)cc(CC2CC3(C2)CN(C(=O)N2CC4(CCC(=O)N4)C2)C3)c1` [Example 10, 2-[6-(3-fluoro-5-mesyl-benzyl)-2-azaspiro[3.3]heptane-2-carbonyl]-2,5-diazaspiro[3.4]octan-6-one] stands 24.5 nM; under `O=C1CCC2(CN(C(=O)N3CC4(CC(Cc5cnc(C(F)(F)F)nc5)C4)C3)C2)N1` [Example 11, 2-[6-[[2-(trifluoromethyl)pyrimi-din-5-y1]methyl]-2-azaspiro[3.3]heptane-2-carbonyl]-2,5-diazaspiro[3.4]octan-6-one], 31.2 nM; under `CS(=O)(=O)c1ccc(CC2CC3(C2)CN(C(=O)N2CC4(COC(=O)N4)C2)C3)cc1` [Example 13, 2-[6-(4-mesylbenzyl)-2-azaspiro[3.3]heptane-2-carbonyl]-7-oxa-2,5-diazaspiro[3.4]octan-6-one], 0.93 nM. The same measure, in the same setting: in the case of `O=C1NC2(CO1)CN(C(=O)N1CC3(CC(Cc4ccc(C(F)(F)F)nc4)C3)C1)C2` [Example 14, 2-[6-[[6-(trifluoromethyl)-3-pyridyl]methyl]-2-azaspiro[3.3]heptane-2-carbonyl]-7-oxa-2,5-diazaspiro[3.4]octan-6-one] it was 0.84 nM. For the molecule `CS(=O)(=O)c1cc(F)ccc1CC1CC2(C1)CN(C(=O)N1CC3(COC(=O)N3)C1)C2` [Example 15, 2-[6-(4-fluoro-2-mesyl-benzyl)-2-azaspiro[3.3]heptane-2-carbonyl]-7-oxa-2,5-diazaspiro[3.4]octan-6-one], the 50% inhibitory concentration (IC50) under setting [1] turned out to be 0.3 nM. On to `N#Cc1cc(CC2CC3(C2)CN(C(=O)N2CC4(CCC(=O)N4)C2)C3)ccc1C(F)(F)F` [Example 16, 5-[[2-(6-keto-2,5-diazaspiro[3.4]octane-2-carbonyl)-2-azaspiro[3.3]heptan-6-yl]methyl]-2-(trifluoromethyl)benzoni-trile], for which the half-inhibitory concentration (IC50) under setting [1] turned out to be 0.09 nM. Under setting [1], `N#Cc1cc(CC2CC3(C2)CN(C(=O)N2CC4(CNC(=O)N4)C2)C3)ccc1C(F)(F)F` [Example 17, 5-[[2-(6-keto-2,5,7-triazaspiro[3.4]octane-2-carbonyl)-2-azaspiro[3.3]heptan-6-yl]methyl]-2-(trifluoromethyl)benzoni-trile] had an IC50 of 3.29 nM.

Consider `N#Cc1cc(CC2CC3(C2)CN(C(=O)N2CC4(COC(=O)N4)C2)C3)ccc1C(F)(F)F` [Example 18, 5-[[2-(6-keto-7-oxa-2,5-diazaspiro[3.4]octane-2-carbonyl)-2-azaspiro[3.3]heptan-6-yl]methyl]-2-(trifluoromethyl)benzoni-trile], for which half-maximal inhibition under setting [1] (IC50) required 0.02 nM.

Consider `O=C1CCC2(CN(C(=O)N3CC4(CC(Cc5ncc(C(F)(F)F)cn5)C4)C3)C2)N1` [Example 19, 2-[6-[[5-(trifluoromethyl)pyrimi-din-2-yl]methyl]-2-azaspiro[3.3]heptane-2-carbonyl]-2,5-diazaspiro[3.4]octan-6-one], for which, under setting [1], the IC50 amounted to 7 nM. `O=C1NC2(CO1)CN(C(=O)N1CC3(CC(Cc4ccc(Cl)cn4)C3)C1)C2` [Example 20, 2-[6-[(5-chloro-2-pyridyl)methyl]-2-azaspiro[3.3]heptane-2-carbonyl]-7-oxa-2,5-diazaspiro[3.4]octan-6-one] came in with an IC50 under setting [1] of 0.31 nM. As to `O=C1NC2(CO1)CN(C(=O)N1CC3(CC(Cc4cccc(S(=O)(=O)C(F)(F)F)c4)C3)C1)C2` [Example 21, 2-[6-(3-triflylbenzyl)-2-azaspiro[3.3]heptane-2-carbonyl]-7-oxa-2,5-diazaspiro[3.4]octan-6-one], it took 0.01 nM to reach half-maximal inhibition under setting [1] (IC50). The molecule `O=C1NC2(CO1)CN(C(=O)N1CC3(CC(Cc4ccc(F)cc4C(F)(F)F)C3)C1)C2` [Example 22, 2-[6-[4-fluoro-2-(trifluoromethyl)benzyl]-2-azaspiro[3.3]heptane-2-carbonyl]-7-oxa-2,5-diazaspiro[3.4]octan-6-one] registered an IC50 (unit nM) below 5 nM. `O=C1NC2(CO1)CN(C(=O)N1CC3(CC(Cc4ccc(F)cc4F)C3)C1)C2` [Example 23, 2-[6-(2,4-difluorobenzyl)-2-azaspiro[3.3]heptane-2-carbonyl]-7-oxa-2,5-diazaspiro[3.4]octan-6-one] returned an IC50 (unit nM) below 5 nM.
